From patent US8598085B2, “2-(2-fluoro-substituted phenyl)-6-amino-5-chloro-4-pyrimidinecarboxylates and their use as herbicides” (Dow AgroSciences LLC, priority 2007, dated 2013)

Experiments:
[1] = tested on: ECHCG—Barnyardgrass (Echinochloa crus-galli); assay: General postemergence herbicidal activity, barnyardgrass; format: in vivo; settings: post-emergence, 336 h, post-emergent, rate 140 g ai/ha, visual score after 14 days (0 no injury, 100 complete kill), read-out: % Growth Reduction ECHCG
Description: (§1) Seeds or nutlets of the desired test plant species were planted in Sun Gro MetroMix® 306 planting mixture, which typically has a pH of 6.0 to 6.8 and an organic matter content of about 30 percent, in plastic pots with a surface area of 64 square centimeters. When required to ensure good germination and healthy plants, a fungicide treatment and/or other chemical or physical treatment was applied. The plants were grown for 7-21 days in a greenhouse with an approximate 15 hour photoperiod which was maintained at about 23-29° C. during the day and 22-28° C. during the night. Nutrients and water were added on a regular basis and supplemental lighting was provided with overhead metal halide 1000-Watt lamps as necessary. The plants were employed for testing when they reached the first or second true leaf stage.
(§2) A weighed amount, determined by the highest rate to be tested, of each test compound was placed in a 25 mL glass vial and was dissolved in 4 mL of a 97:3 v/v (volume/volume) mixture of acetone and dimethyl sulfoxide (DMSO) to obtain concentrated stock solutions. […] The concentrated stock solutions obtained were diluted with 20 mL of an aqueous mixture containing acetone, water, isopropyl alcohol, DMSO, Atplus 411F crop oil concentrate, and Triton X-155 surfactant in a 48.5:39:10:1.5:1.0:0.02 v/v ratio to obtain spray solutions containing the highest application rates. Additional application rates were obtained by serial dilution of 12 mL of the high rate solution into a solution containing 2 mL of 97:3 v/v (volume/volume) mixture of acetone and DMSO and 10 mL of an aqueous mixture containing acetone, water, isopropyl alcohol, DMSO, Atplus 411F crop oil concentrate, and Triton X-155 surfactant in a 48.5:39:10:1.5:1.0:0.02 v/v ratio to obtain ½X, ¼X, ⅛X and 1/16X rates of the high rate. Compound requirements are based upon a 12 mL application volume at a rate of 187 L/ha. Formulated compounds were applied to the plant material with an overhead Mandel track sprayer equipped with 8002E nozzles calibrated to deliver 187 L/ha over an application area of 0.503 square meters at a spray height of 18 inches […] above the average plant canopy height. Control plants were sprayed in the same manner with the solvent blank.
(§3) The treated plants and control plants were placed in a greenhouse as described above and watered by sub-irrigation to prevent wash-off of the test compounds. After 14 days, the condition of the test plants as compared with that of the untreated plants was determined visually and scored on a scale of 0 to 100 percent where 0 corresponds to no injury and 100 corresponds to complete kill.

[2] = tested on: HELAN—Common sunflower (Helianthus annuus); assay: General preemergence herbicidal activity, common sunflower; format: in vivo; settings: pre-emergent, rate 140 g ai/ha, visual score after 20-22 days (0 no injury, 100 complete kill or no emergence), read-out: % Growth Inhibition HELAN
Description: (§4) Seeds of the desired test plant species were planted in a soil matrix prepared by mixing a loam soil (43 percent silt, 19 percent clay, and 38 percent sand, with a pH of about 8.1 and an organic matter content of about 1.5 percent) and sand in a 70 to 30 ratio. The soil matrix was contained in plastic pots with a surface area of 113 square centimeters. When required to ensure good germination and healthy plants, a fungicide treatment and/or other chemical or physical treatment was applied. A weighed amount, determined by the highest rate to be tested, of each test compound was placed in a 25 mL glass vial and was dissolved in 6 mL of a 97:3 v/v (volume/volume) mixture of acetone and DMSO to obtain concentrated stock solutions. […] The stock solutions obtained were diluted with 18 mL of a 0.1% v/v aqueous solution of Tween® 20 surfactant to obtain spray solutions containing the highest application rate. Additional application rates were obtained by serial dilution of 12 mL of the high rate solution into a solution containing 3 mL of 97:3 v/v mixture of acetone and DMSO and 9 mL of the 0.1% v/v aqueous solution of Tween® 20 surfactant to obtain 1⁄2X, 1⁄4X, 1⁄8X and 1/16X rates of the high rate. Compound requirements are based upon a 12 mL application volume at a rate of 187 L/ha. Formulated compounds were applied to the plant material with an overhead Mandel track sprayer equipped with […] nozzles calibrated to deliver 187 L/ha over an application area of 0.503 square meters at a spray height of 18 inches (43 cm) above the soil surface. Control plants were sprayed in the same manner with the solvent blank. The treated pots and control pots were placed in a greenhouse maintained with an approximate 15 hour photoperiod and temperatures of about 23-29° C. during the day and 22-28° C. during the night. Nutrients and water were added on a regular basis and supplemental lighting was provided with overhead metal halide 1000-Watt lamps as necessary. The water was added by top-irrigation. After 20-22 days, the condition of the test plants that germinated and grew as compared with that of the untreated plants that emerged and grew was determined visually and scored on a scale of 0 to 100 percent where 0 corresponds to no injury and 100 corresponds to complete kill or no emergence.

[3] = tested on: ABUTH—Velvetleaf (Abutilon theophrasti); assay: General preemergence herbicidal activity, velvetleaf; format: in vivo; settings: pre-emergent, rate 140 g ai/ha, visual score after 20-22 days (0 no injury, 100 complete kill or no emergence), read-out: % Growth Inhibition ABUTH
Description: as §4

[4] = tested on: ABUTH—Velvetleaf (Abutilon theophrasti); assay: General postemergence herbicidal activity, velvetleaf; format: in vivo; settings: post-emergence, 336 h, post-emergent, rate 140 g ai/ha, visual score after 14 days (0 no injury, 100 complete kill), read-out: % Growth Reduction ABUTH
Description: as §1, §2, §3

[5] = tested on: CIRAR—Canada thistle (Cirsium arvense); assay: General postemergence herbicidal activity, Canada thistle; format: in vivo; settings: post-emergence, 336 h, post-emergent, rate 140 g ai/ha, visual score after 14 days (0 no injury, 100 complete kill), read-out: % Growth Reduction CIRAR
Description: as §1, §2, §3

[6] = tested on: ZEAMX—Corn (Zea mays); assay: General preemergence herbicidal activity, corn; format: in vivo; settings: pre-emergent, rate 140 g ai/ha, visual score after 20-22 days (0 no injury, 100 complete kill or no emergence), read-out: % Growth Inhibition ZEAMX
Description: as §4

[7] = tested on: SORVU—Common sorghum (Sorghum vulgare); assay: General preemergence herbicidal activity, common sorghum; format: in vivo; settings: pre-emergent, rate 140 g ai/ha, visual score after 20-22 days (0 no injury, 100 complete kill or no emergence), read-out: % Growth Inhibition SORVU
Description: as §4

[8] = tested on: CHEAL—Common lambsquarters (Chenopodium album); assay: General preemergence herbicidal activity, common lambsquarters; format: in vivo; settings: pre-emergent, rate 140 g ai/ha, visual score after 20-22 days (0 no injury, 100 complete kill or no emergence), read-out: % Growth Inhibition CHEAL
Description: as §4

[9] = tested on: POLCO—Wild buckwheat (Polygonum convolvulus); assay: General postemergence herbicidal activity, wild buckwheat; format: in vivo; settings: Fallopia convolvulus, post-emergence, 336 h; post-emergent, rate 140 g ai/ha, visual score after 14 days (0 no injury, 100 complete kill); read-out: % Growth Reduction POLCO
Description: as §1, §2, §3

Compound	pest or weed control at 140 g/ha [1] [%]	inhibition at 140 g/ha [2] [%]	inhibition at 140 g/ha [3] [%]	pest or weed control at 140 g/ha [4] [%]	pest or weed control at 140 g/ha [5] [%]	inhibition at 140 g/ha [6] [%]	melting point [°C]	inhibition at 140 g/ha [7] [%]	inhibition at 140 g/ha [8] [%]	pest or weed control at 140 g/ha [9] [%]
Nc1nc(-c2ccc(Cl)c(F)c2F)nc(C(=O)O)c1Cl [Compound 12, 6-Amino-5-chloro-2-(4-chloro-2,3-difluorophenyl)pyrimidine-4-carboxylic acid]	90	100	100	100	90	15	209 to 211	90	100	100
Cc1ccc(-c2nc(N)c(Cl)c(C(=O)O)n2)c(F)c1F [Compound 14, 6-Amino-5-chloro-2-(2,3-difluoro-4-methylphenyl)pyrimidine-4-carboxylic acid]	95	60	100	90	85	30	–	40	100	80
Nc1nc(-c2ccc(Cl)cc2F)nc(C(=O)O)c1Cl [Compound 11, 6-Amino-5-chloro-2-(4-chloro-2-fluorophenyl)pyrimidine-4-carboxylic acid]	85	95	90	99	100	0	194 to 196	95	100	100
Nc1nc(-c2ccc(C(F)(F)F)cc2F)nc(C(=O)O)c1Cl [Compound 15, 6-Amino-5-chloro-2-(2-fluoro-4-trifluoromethylphenyl)pyrimidine-4-carboxylic acid]	50	10	10	40	80	65	–	0	60	65
